Results on 20 molecules are retold here after PubChem BioAssay (NCI).

Each structure is given as a SMILES string.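 Interpolation was linear, between the two tested concentrations surrounding the appropriate level; five concentrations were tested over 48 hours in 96-well plates. Here, GI50 denotes the concentration required for 50% inhibition of growth. TGI marks complete inhibition of growth.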

One assay relates to A549 NSCLC. Put plainly: inhibition of tumour cell growth, NCI panel, 48 h.
Turning to `CCC1(C(=O)OC(C)(C)C)OC12C(C)CCCC2C` (stereo not drawn), the TGI is > 100 µM.

Turning to `Cc1ccc(-c2cc(N)n(-c3nc4c(c(=O)n(C)c(=O)n4C)n3C)n2)cc1`, the TGI was > 100 µM.

On to `CN(C)c1ccc(C2SCC(=O)N2NS(=O)(=O)c2cccc(C(=O)O)c2)cc1` (stereo not drawn), for which the TGI was > 100 µM.

As to `CC1CCOc2ccc(cc2)C=Nc2ccc(cc2)CCc2ccc(cc2)N=Cc2ccc(cc2)OCC1` (stereo not drawn), the TGI is > 100 µM.

Take `COC(=O)[C@H](Cc1ccccc1)NC(=O)[C@H](Cc1ccccc1)NC(=O)[C@@H]1CCCN1C(=O)N[C@H]1C2C=CC(C2)C1C(=O)N1CCC[C@H]1C(=O)N[C@@H](C)C(=O)N[C@H](C(=O)OC)C(C)C` (stereo partly drawn): the TGI was > 100 µM.

On to `O=C1c2ccccc2-c2nc(-c3cccc([N+](=O)[O-])c3)nnc21`, for which the TGI amounted to 98.6 µM.

In the case of `CNC(=O)Oc1ccc(-c2cn3cc(OC(=O)NC)ccc3n2)cc1`, the TGI was > 100 µM.

Regarding `CC(=O)N1N=C(c2ccc3ccccc3c2O)CC1C(=O)c1ccco1` (stereo not drawn), the TGI was > 100 µM.

For `N#Cc1nc(-c2cccs2)oc1N`, the TGI is > 100 µM.

As for `O=c1[nH]/c(=C/c2ccc(OCc3ccccc3)cn2)c(=O)[nH]/c1=C/c1ccc(O)cc1`, the TGI is > 53.5 µM.

Regarding `O=C(OCC1OC2OC(c3ccccc3)(n3ccc4c([N+](=O)[O-])ccnc43)OC2C1OC(=O)c1ccccc1)c1ccccc1` (stereo not drawn), the TGI was > 100 µM.

In turn, `OCC1OC(n2cnc3c(Cl)nc(Nc4ccccc4)nc32)CC1O` (stereo not drawn) gave a TGI of 36.4 µM.

For the molecule `C[C@]12CCc3nc(Nc4ccccc4)sc3C1=CC[C@@H]1[C@@H]2CC[C@]2(C)/C(=N/NC(N)=S)CC[C@@H]12`, the GI50 was 8.5 µM and the TGI was > 100 µM.

For `NCCSc1nc2ccccc2c(=O)n1-c1ccccc1`, the TGI was > 100 µM.

In the case of `COC(=O)C1=CC(=O)OC1(OO)c1ccccc1` (stereo not drawn), the TGI is > 100 µM.

As to `Cc1cc(C2(O)C=C(C(C)(C)C)C(=O)C(C(C)(C)C)=C2)c(C)cc1C1(O)C=C(C(C)(C)C)C(=O)C(C(C)(C)C)=C1`, the TGI is > 100 µM.

In the case of `CC1=NN(c2ccc(S(=O)(=O)O)cc2)C2(C1)SCC(=O)N2c1nc2ccccc2s1` (stereo not drawn), the TGI is > 100 µM.

For `CC(=O)O[C@H]1C#C/C=C\C#CC[C@@H]2C(=O)N[C@@H]12`, the TGI was > 100 µM.

Consider `Cc1ccc2nc(Cl)c(/C=N/N3C(=O)/C(=C/c4ccccc4S)N=C3c3ccccc3)cc2c1`, for which the TGI is > 100 µM.

Consider `CCCSc1ccc2[nH]c(/N=C/c3ccco3)cc2c1`, for which the TGI was > 100 µM.

Another assay deals with BT-549 breast. Briefly: inhibition of tumour cell growth, NCI panel, 48 h.
As for `CCC1(C(=O)OC(C)(C)C)OC12C(C)CCCC2C` (stereo not drawn), the TGI was > 100 µM.

`Cc1ccc(-c2cc(N)n(-c3nc4c(c(=O)n(C)c(=O)n4C)n3C)n2)cc1`: the TGI is > 100 µM.

As to `CN(C)c1ccc(C2SCC(=O)N2NS(=O)(=O)c2cccc(C(=O)O)c2)cc1` (stereo not drawn), the TGI is > 100 µM.

In the case of `CC1CCOc2ccc(cc2)C=Nc2ccc(cc2)CCc2ccc(cc2)N=Cc2ccc(cc2)OCC1` (stereo not drawn), the TGI was > 100 µM.

Take `COC(=O)[C@H](Cc1ccccc1)NC(=O)[C@H](Cc1ccccc1)NC(=O)[C@@H]1CCCN1C(=O)N[C@H]1C2C=CC(C2)C1C(=O)N1CCC[C@H]1C(=O)N[C@@H](C)C(=O)N[C@H](C(=O)OC)C(C)C` (stereo partly drawn): the TGI was > 100 µM.

In the case of `O=C1c2ccccc2-c2nc(-c3cccc([N+](=O)[O-])c3)nnc21`, the TGI was 36.7 µM.

As for `CNC(=O)Oc1ccc(-c2cn3cc(OC(=O)NC)ccc3n2)cc1`, the TGI is > 100 µM.

Turning to `CC(=O)N1N=C(c2ccc3ccccc3c2O)CC1C(=O)c1ccco1` (stereo not drawn), the TGI was > 100 µM.

Take `N#Cc1nc(-c2cccs2)oc1N`: the TGI was > 100 µM.

`O=c1[nH]/c(=C/c2ccc(OCc3ccccc3)cn2)c(=O)[nH]/c1=C/c1ccc(O)cc1` showed a TGI of 8.63 µM.

As to `O=C(OCC1OC2OC(c3ccccc3)(n3ccc4c([N+](=O)[O-])ccnc43)OC2C1OC(=O)c1ccccc1)c1ccccc1` (stereo not drawn), the TGI was > 100 µM.

In the case of `OCC1OC(n2cnc3c(Cl)nc(Nc4ccccc4)nc32)CC1O` (stereo not drawn), the TGI was > 100 µM.

`C[C@]12CCc3nc(Nc4ccccc4)sc3C1=CC[C@@H]1[C@@H]2CC[C@]2(C)/C(=N/NC(N)=S)CC[C@@H]12`: the GI50 is 3.26 µM and the TGI is > 100 µM.

Turning to `NCCSc1nc2ccccc2c(=O)n1-c1ccccc1`, the TGI was > 100 µM.

Turning to `COC(=O)C1=CC(=O)OC1(OO)c1ccccc1` (stereo not drawn), the TGI was > 100 µM.

Regarding `Cc1cc(C2(O)C=C(C(C)(C)C)C(=O)C(C(C)(C)C)=C2)c(C)cc1C1(O)C=C(C(C)(C)C)C(=O)C(C(C)(C)C)=C1`, the TGI was > 100 µM.

For the molecule `CC1=NN(c2ccc(S(=O)(=O)O)cc2)C2(C1)SCC(=O)N2c1nc2ccccc2s1` (stereo not drawn), the TGI was > 100 µM.

For `CC(=O)O[C@H]1C#C/C=C\C#CC[C@@H]2C(=O)N[C@@H]12`, the TGI was > 86.5 µM.

For `Cc1ccc2nc(Cl)c(/C=N/N3C(=O)/C(=C/c4ccccc4S)N=C3c3ccccc3)cc2c1`, the TGI was > 100 µM.

Take `CCCSc1ccc2[nH]c(/N=C/c3ccco3)cc2c1`: the TGI was > 100 µM.

A further assay has as its system COLO 205 colon. Briefly: inhibition of tumour cell growth, NCI panel, 48 h.
On to `CCC1(C(=O)OC(C)(C)C)OC12C(C)CCCC2C` (stereo not drawn), for which the TGI was 63 µM.

Consider `Cc1ccc(-c2cc(N)n(-c3nc4c(c(=O)n(C)c(=O)n4C)n3C)n2)cc1`, for which the TGI is > 100 µM.

On to `CN(C)c1ccc(C2SCC(=O)N2NS(=O)(=O)c2cccc(C(=O)O)c2)cc1` (stereo not drawn), for which the TGI was > 100 µM.

`CC1CCOc2ccc(cc2)C=Nc2ccc(cc2)CCc2ccc(cc2)N=Cc2ccc(cc2)OCC1` (stereo not drawn): the TGI is > 100 µM.

On to `COC(=O)[C@H](Cc1ccccc1)NC(=O)[C@H](Cc1ccccc1)NC(=O)[C@@H]1CCCN1C(=O)N[C@H]1C2C=CC(C2)C1C(=O)N1CCC[C@H]1C(=O)N[C@@H](C)C(=O)N[C@H](C(=O)OC)C(C)C` (stereo partly drawn), for which the TGI is > 100 µM.

`O=C1c2ccccc2-c2nc(-c3cccc([N+](=O)[O-])c3)nnc21` gave a TGI of 12.6 µM.
